# Measurements as given in ChEMBL document CHEMBL1649470 (Antimicrob Agents Chemother, 2009).
# Active and inactive are the calls of the source. No cut-off for these calls is given here.
# What was measured:
# Influenza A virus [1] = experiment: Antiviral activity against Influenza A virus (A/duck/Laos/25/2006(H5N1)) infected in BALB/c mouse assessed as virus-induced change body weight at 20 mg/kg, po BID for 5 days measured on day 6 postinfection; assay type: functional
# Influenza A virus [2] = experiment: Antiviral activity against Influenza A virus (A/whooper swan/Mongolia/1/2009(H5N1)) infected in BALB/c mouse assessed as decrease in viral load in brain at 20 mg/kg, po BID for 5 days measured on day 3 postinfection; assay type: functional, organism-based; set-up: dose 20 mg/kg
# Influenza A virus [3] = experiment: Antiviral activity against Influenza A virus (A/chicken/Yogjakarta/BBVet-IX/2004(H5N1)) infected in BALB/c mouse assessed as decrease in viral load in lung at 20 mg/kg, po BID for 5 days measured on day 9 postinfection; assay type: functional, organism-based; set-up: dose 20 mg/kg
# Influenza A virus [4] = experiment: Antiviral activity against Influenza A virus (A/duck/Laos/25/2006(H5N1)) infected in BALB/c mouse assessed as survival rate at 20 mg/kg, po BID for 5 days measured post last dose; assay type: functional; settings: 120 h
# Influenza A virus [5] = experiment: Antiviral activity against Influenza A virus (A/chicken/Yogjakarta/BBVet-IX/2004(H5N1)) infected in BALB/c mouse assessed as decrease in viral load in brain at 20 mg/kg, po BID for 5 days measured on day 9 postinfection; assay type: functional, organism-based; set-up: dose 20 mg/kg
# Influenza A virus [6] = experiment: Antiviral activity against Influenza A virus (A/whooper swan/Mongolia/1/2009(H5N1)) infected in BALB/c mouse assessed as virus-induced change body weight at 20 mg/kg, po BID for 5 days measured on day 15 postinfection; assay type: functional
# Influenza A virus [7] = experiment: Antiviral activity against Influenza A virus (A/whooper swan/Mongolia/1/2009(H5N1)) infected in BALB/c mouse assessed as virus-induced change body weight at 20 mg/kg, po BID for 5 days measured on day 6 postinfection; assay type: functional
# Influenza A virus [8] = experiment: Antiviral activity against Influenza A virus (A/Thailand/1(KAN-1)/2004(H5N1)) infected in BALB/c mouse assessed as decrease in viral load in lung at 20 mg/kg, po BID for 5 days measured on day 6 postinfection; assay type: functional, organism-based; set-up: dose 20 mg/kg
# Influenza A virus [9] = experiment: Antiviral activity against Influenza A virus (A/duck/Laos/25/2006(H5N1)) infected in BALB/c mouse assessed as decrease in viral load in brain at 20 mg/kg, po BID for 5 days measured on day 9 postinfection; assay type: functional, organism-based; set-up: dose 20 mg/kg
# Influenza A virus [10] = experiment: Antiviral activity against Influenza A virus (A/chicken/Yogjakarta/BBVet-IX/2004(H5N1)) infected in BALB/c mouse assessed as virus-induced change body weight at 20 mg/kg, po BID for 5 days measured on day 6 postinfection; assay type: functional
# Influenza A virus [11] = experiment: Antiviral activity against Influenza A virus (A/duck/Laos/25/2006(H5N1)) infected in BALB/c mouse assessed as decrease in viral load in lung at 20 mg/kg, po BID for 5 days measured on day 3 postinfection; assay type: functional, organism-based; set-up: dose 20 mg/kg
# Influenza A virus [12] = experiment: Antiviral activity against Influenza A virus (A/chicken/Yogjakarta/BBVet-IX/2004(H5N1)) infected in BALB/c mouse assessed as virus-induced change body weight at 20 mg/kg, po BID for 5 days measured on day 9 postinfection; assay type: functional
# Influenza A virus [13] = settings: dose 20 mg/kg; route oral
# Influenza A virus [14] = experiment: Antiviral activity against Influenza A virus (A/Thailand/1(KAN-1)/2004(H5N1)) infected in BALB/c mouse assessed as decrease in viral load in brain at 20 mg/kg, po BID for 5 days measured on day 9 postinfection; assay type: functional, organism-based; set-up: dose 20 mg/kg
# Influenza A virus [15] = experiment: Antiviral activity against Influenza A virus (A/duck/Laos/25/2006(H5N1)) infected in BALB/c mouse assessed as virus-induced change body weight at 20 mg/kg, po BID for 5 days measured on day 9 postinfection; assay type: functional
# Influenza A virus [16] = experiment: Antiviral activity against Influenza A virus (A/whooper swan/Mongolia/1/2009(H5N1)) infected in BALB/c mouse assessed as decrease in viral load in brain at 20 mg/kg, po BID for 5 days measured on day 9 postinfection; assay type: functional, organism-based; set-up: dose 20 mg/kg
# Influenza A virus [17] = experiment: Antiviral activity against Influenza A virus (A/duck/Laos/25/2006(H5N1)) infected in BALB/c mouse assessed as virus-induced change body weight at 20 mg/kg, po BID for 5 days measured on day 15 postinfection; assay type: functional
# Influenza A virus [18] = settings: 120 h, route oral
# Influenza A virus [19] = experiment: Antiviral activity against Influenza A virus (A/chicken/Yogjakarta/BBVet-IX/2004(H5N1)) infected in BALB/c mouse assessed as survival rate at 20 mg/kg, po BID for 5 days measured post last dose; assay type: functional; settings: 120 h
# Influenza A virus [20] = experiment: Antiviral activity against Influenza A virus (A/chicken/Yogjakarta/BBVet-IX/2004(H5N1)) infected in BALB/c mouse assessed as mean day to death at 20 mg/kg, po BID for 5 days measured post last dose; assay type: functional
# Influenza A virus [21] = experiment: Antiviral activity against Influenza A virus (A/whooper swan/Mongolia/1/2009(H5N1)) infected in BALB/c mouse assessed as virus-induced change body weight at 20 mg/kg, po BID for 5 days measured on day 9 postinfection; assay type: functional
# Influenza A virus [22] = experiment: Antiviral activity against Influenza A virus (A/duck/Laos/25/2006(H5N1)) infected in BALB/c mouse assessed as mean day to death at 20 mg/kg, po BID for 5 days measured post last dose; assay type: functional
# Influenza A virus [23] = settings: dose 20 mg/kg; route oral; remark: listed apart in the source
# Influenza A virus [24] = experiment: Antiviral activity against Influenza A virus (A/whooper swan/Mongolia/1/2009(H5N1)) infected in BALB/c mouse assessed as mean day to death at 20 mg/kg, po BID for 5 days measured post last dose; assay type: functional
# Influenza A virus [25] = experiment: Antiviral activity against Influenza A virus (A/Thailand/1(KAN-1)/2004(H5N1)) infected in BALB/c mouse assessed as mean day to death at 20 mg/kg, po BID for 5 days measured post last dose; assay type: functional
# Influenza A virus [26] = experiment: Antiviral activity against Influenza A virus (A/whooper swan/Mongolia/1/2009(H5N1)) infected in BALB/c mouse assessed as decrease in viral load in brain at 20 mg/kg, po BID for 5 days measured on day 6 postinfection; assay type: functional, organism-based; set-up: dose 20 mg/kg
# Influenza A virus [27] = experiment: Antiviral activity against Influenza A virus (A/Thailand/1(KAN-1)/2004(H5N1)) infected in BALB/c mouse assessed as virus-induced change body weight at 20 mg/kg, po BID for 5 days measured on day 15 postinfection; assay type: functional
# Influenza A virus [28] = experiment: Antiviral activity against Influenza A virus (A/whooper swan/Mongolia/1/2009(H5N1)) infected in BALB/c mouse assessed as survival rate at 20 mg/kg, po BID for 5 days measured post last dose; assay type: functional; settings: 120 h
# Influenza A virus [29] = experiment: Antiviral activity against Influenza A virus (A/whooper swan/Mongolia/1/2009(H5N1)) infected in BALB/c mouse assessed as decrease in viral load in lung at 20 mg/kg, po BID for 5 days measured on day 9 postinfection; assay type: functional, organism-based; set-up: dose 20 mg/kg
# Influenza A virus [30] = experiment: Antiviral activity against Influenza A virus (A/Thailand/1(KAN-1)/2004(H5N1)) infected in BALB/c mouse assessed as virus-induced change body weight at 20 mg/kg, po BID for 5 days measured on day 9 postinfection; assay type: functional
# Influenza A virus [31] = experiment: Antiviral activity against Influenza A virus (A/chicken/Yogjakarta/BBVet-IX/2004(H5N1)) infected in BALB/c mouse assessed as virus-induced change body weight at 20 mg/kg, po BID for 5 days measured on day 15 postinfection; assay type: functional
# Influenza A virus [32] = experiment: Antiviral activity against Influenza A virus (A/Thailand/1(KAN-1)/2004(H5N1)) infected in BALB/c mouse assessed as survival rate at 20 mg/kg, po BID for 5 days measured post last dose; assay type: functional; settings: 120 h
# Influenza A virus [33] = experiment: Antiviral activity against Influenza A virus (A/Thailand/1(KAN-1)/2004(H5N1)) infected in BALB/c mouse assessed as decrease in viral load in lung at 20 mg/kg, po BID for 5 days measured on day 9 postinfection; assay type: functional, organism-based; set-up: dose 20 mg/kg
# Influenza A virus [34] = experiment: Antiviral activity against Influenza A virus (A/Thailand/1(KAN-1)/2004(H5N1)) infected in BALB/c mouse assessed as virus-induced change body weight at 20 mg/kg, po BID for 5 days measured on day 6 postinfection; assay type: functional
smiles,measurement,setting,value
CCOC(=O)C1=C[C@@H](OC(CC)CC)[C@H](NC(C)=O)[C@@H](N)C1 [OSELTAMIVIR],Activity,Influenza A virus [1],-0.2%
same,Activity,Influenza A virus [2],inactive
same,Activity,Influenza A virus [3],Active
same,survival at 20 mg/kg,Influenza A virus [4],60%
same,Activity,Influenza A virus [5],Active
same,Activity,Influenza A virus [6],-10.6%
same,Activity,Influenza A virus [7],-7%
same,Activity,Influenza A virus [8],Active
same,Activity,Influenza A virus [9],Active
same,Activity,Influenza A virus [10],-22%
same,inhibition,Influenza A virus [11],Active
same,Activity,Influenza A virus [12],-11.2%
same,Activity,Influenza A virus [13],-24.4%
same,Activity,Influenza A virus [14],inactive
same,Activity,Influenza A virus [15],-20.3%
same,Activity,Influenza A virus [16],inactive
same,Activity,Influenza A virus [17],-7.6%
same,survival at 20 mg/kg,Influenza A virus [18],0%
same,survival at 20 mg/kg,Influenza A virus [19],100%
same,Time,Influenza A virus [20],>21 days
same,Activity,Influenza A virus [21],-18.2%
same,Time,Influenza A virus [22],13.5 days
same,Time,Influenza A virus [23],8 days
same,Time,Influenza A virus [24],9.7 days
same,Time,Influenza A virus [25],10 days
same,Activity,Influenza A virus [26],inactive
same,Activity,Influenza A virus [27],-2.1%
same,survival at 20 mg/kg,Influenza A virus [28],70%
same,Activity,Influenza A virus [29],Active
same,Activity,Influenza A virus [30],-17.6%
same,Activity,Influenza A virus [31],1.2%
same,survival at 20 mg/kg,Influenza A virus [32],80%
same,Activity,Influenza A virus [33],Active
same,Activity,Influenza A virus [34],-10.7%
